Assay results from paper PMC7173930, “EAT-18 is an essential auxiliary protein interacting with the non-alpha nAChR subunit EAT-2 to form a functional receptor” (PLoS Pathogens, 2020).

What was measured:
[1] = molecular target: Asu-EAT-2 nAChR (Ascaris suum, UniProt F1L9Y6); test: cell-based; assay type: cell-based, A. suum; conditions: read-out: current response normalized to the control 100 μM ACh current
[2] = test system: nAChRs expressed in the pharynx of A. suum; test: tissue or blood; assay type: cell-based
Description: A. suum pharyngeal dissections and electrophysiology recordings were adapted from Martin [49]. Briefly, pharynx was dissected out from the head region of the worm and mounted on Sylgard (Sigma-Aldrich Inc., USA)—lined in a double jacketed bath chamber maintained at 28°C. The muscle layer surrounding the anterior 3rd of the pharynx was preserved for anchoring. The intestine attached to the posterior end of the pharynx was used for stretching and pinning down. The preparation was continuously perfused with calcium-free Ascaris Perienteric Fluid-Ringer (calcium-free APF-Ringer) composition (mM): NaCl 23, Na-acetate 110, KCl 24, MgCl2 11, glucose 11, and HEPES 5; NaOH or acetic acid was added to adjust the pH to 7.6. […] The rate of localized perfusion was 3.5–4 ml min^−1 through a 20-gauge needle, which was placed directly above the recording region of the pharynx. […] We used 3 M potassium acetate in our micropipettes to get the final resistances of 4–7 MΩ for the voltage sensing and 0.5–1 MΩ for the current injecting electrode for current-clamp recordings. The current-injecting electrode injected hyperpolarizing step currents of −1000 nA for 500 ms at 0.3 Hz.
We constructed the sigmoidal concentration-response plots by fitting the data by nonlinear regression to determine the pEC50 and the maximal response (Rmax). Extra sum of squares F-test was used to test statistical differences between pEC50, slope, and maximal response. The significance levels were set to P<0.05.
In applications containing arecoline and pilocarpine, we used mecamylamine, a nAChR antagonist (30µM) to inhibit nAChRs and to allow only mAChR activation.

[3] = molecular target: T1, Cel-EAT-2 + Asu-EAT-18 + Asu-RIC-3 (Caenorhabditis elegans, UniProt Q9U298); test: cell-based
[4] = molecular target: T1, Cel-EAT-2 + Asu-EAT-18 + Asu-RIC-3
[5] = molecular target: T2, Cel-EAT-2 and Cel-EAT-18c nAChR (Caenorhabditis elegans, UniProt Q9U298); test: Two-electrode voltage-clamp of Cel-EAT-2 + Cel-EAT-18c nAChR expressed in Xenopus oocytes; assay type: cell-based
T2 sequence (Q9U298 22-474): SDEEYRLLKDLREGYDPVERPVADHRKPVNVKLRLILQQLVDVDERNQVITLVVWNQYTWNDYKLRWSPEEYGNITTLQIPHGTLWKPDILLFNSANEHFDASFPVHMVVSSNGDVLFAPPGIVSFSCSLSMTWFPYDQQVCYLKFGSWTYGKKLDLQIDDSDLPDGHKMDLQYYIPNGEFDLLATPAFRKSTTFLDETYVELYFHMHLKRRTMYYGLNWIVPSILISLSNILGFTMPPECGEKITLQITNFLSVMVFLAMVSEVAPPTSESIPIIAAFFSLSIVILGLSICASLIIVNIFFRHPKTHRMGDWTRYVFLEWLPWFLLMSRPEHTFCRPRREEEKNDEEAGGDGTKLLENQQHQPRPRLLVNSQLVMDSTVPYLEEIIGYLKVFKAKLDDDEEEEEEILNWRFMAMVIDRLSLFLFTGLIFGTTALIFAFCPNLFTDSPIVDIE

Sequence of Asu-EAT-2 nAChR (F1L9Y6 entry or part of it): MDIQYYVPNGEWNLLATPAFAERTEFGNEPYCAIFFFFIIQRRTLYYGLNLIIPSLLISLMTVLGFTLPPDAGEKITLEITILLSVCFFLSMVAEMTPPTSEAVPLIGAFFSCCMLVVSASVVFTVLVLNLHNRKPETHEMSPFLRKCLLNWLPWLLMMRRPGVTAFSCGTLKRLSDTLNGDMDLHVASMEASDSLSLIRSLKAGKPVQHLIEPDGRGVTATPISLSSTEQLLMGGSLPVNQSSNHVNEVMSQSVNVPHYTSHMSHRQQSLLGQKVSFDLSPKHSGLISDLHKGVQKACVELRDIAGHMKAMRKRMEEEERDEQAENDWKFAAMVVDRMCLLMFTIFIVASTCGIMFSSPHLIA
Sequence of Asu-EAT-2 nAChR (F1L1D9 entry or part of it, further chain): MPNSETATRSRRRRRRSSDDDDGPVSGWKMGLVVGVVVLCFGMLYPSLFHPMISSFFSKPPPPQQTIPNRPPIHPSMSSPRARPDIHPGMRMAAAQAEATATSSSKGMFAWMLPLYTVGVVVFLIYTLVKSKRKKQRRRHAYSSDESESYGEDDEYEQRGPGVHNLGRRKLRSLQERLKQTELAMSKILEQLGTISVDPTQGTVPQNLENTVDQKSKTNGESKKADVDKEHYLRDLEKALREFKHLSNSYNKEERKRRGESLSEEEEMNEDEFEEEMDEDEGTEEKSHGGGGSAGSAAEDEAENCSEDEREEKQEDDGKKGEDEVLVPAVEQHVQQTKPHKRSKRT

Which Emax [1] does the source give for CN1CCC[C@H]1c1cccnc1 [nicotine] here?
Its Emax is 105 ± 5.7%.

What about the “Hill slope (nH)” value [2] of the same molecule?
The value was 1.7±0.6.

What about the maximal response [2] of the same molecule?
The maximal response was 79.3 ± 4.3 μS.

And the Emax ([2]; Ascaris suum, read-out: % change in membrane conductance (δG) normalized to the ACh δG)?
Its Emax is 92 ± 6.2%.

And the EC50 ([2]; Ascaris suum, read-out: pEC50 (converted))?
Its EC50 is 10 µM.

And the EC50 [3]?
Its EC50 is 18.7 µM.

And the Imax [4]?
Its Imax is 96.5 ± 2.3%.

And the EC50 [5]?
Its EC50 is 63.1 µM.

And the “Hill slope (nH)” value [5]?
Its value is 2.4±0.4.

What about the Imax [5] of the same molecule?
Its Imax is 54.6 ± 2.6%.

What about the “current response normalized to the control 100 μM ACh current (Imax)” value [5] of the same molecule?
Its value is 55 ± 8.0%.

And the Emax at 100 µM ([5]; read-out: current response normalized to the control 100 μM ACh current (Imax))?
The Emax at 100 µM was 55 ± 8%.
